Experimental data published in US11739098B2 (BRISTOL-MYERS SQUIBB COMPANY, priority 2017, dated 2023).

Experiments:
Type in all cases: cell-based
human TLR7 = biological target: T1, human TLR7 (Homo sapiens, UniProt Q9NYK1); assay: TLR7 inhibition reporter assay (HEK-Blue cells, SEAP reporter, gardiquimod stimulation); conditions: HEK-Blue cells overexpressing human TLR7, SEAP reporter, gardiquimod 7.5 μM
T1 construct: host or cells: HEK-Blue cells (HEK293-derived reporter line)
T1 sequence (Q9NYK1 27-1049): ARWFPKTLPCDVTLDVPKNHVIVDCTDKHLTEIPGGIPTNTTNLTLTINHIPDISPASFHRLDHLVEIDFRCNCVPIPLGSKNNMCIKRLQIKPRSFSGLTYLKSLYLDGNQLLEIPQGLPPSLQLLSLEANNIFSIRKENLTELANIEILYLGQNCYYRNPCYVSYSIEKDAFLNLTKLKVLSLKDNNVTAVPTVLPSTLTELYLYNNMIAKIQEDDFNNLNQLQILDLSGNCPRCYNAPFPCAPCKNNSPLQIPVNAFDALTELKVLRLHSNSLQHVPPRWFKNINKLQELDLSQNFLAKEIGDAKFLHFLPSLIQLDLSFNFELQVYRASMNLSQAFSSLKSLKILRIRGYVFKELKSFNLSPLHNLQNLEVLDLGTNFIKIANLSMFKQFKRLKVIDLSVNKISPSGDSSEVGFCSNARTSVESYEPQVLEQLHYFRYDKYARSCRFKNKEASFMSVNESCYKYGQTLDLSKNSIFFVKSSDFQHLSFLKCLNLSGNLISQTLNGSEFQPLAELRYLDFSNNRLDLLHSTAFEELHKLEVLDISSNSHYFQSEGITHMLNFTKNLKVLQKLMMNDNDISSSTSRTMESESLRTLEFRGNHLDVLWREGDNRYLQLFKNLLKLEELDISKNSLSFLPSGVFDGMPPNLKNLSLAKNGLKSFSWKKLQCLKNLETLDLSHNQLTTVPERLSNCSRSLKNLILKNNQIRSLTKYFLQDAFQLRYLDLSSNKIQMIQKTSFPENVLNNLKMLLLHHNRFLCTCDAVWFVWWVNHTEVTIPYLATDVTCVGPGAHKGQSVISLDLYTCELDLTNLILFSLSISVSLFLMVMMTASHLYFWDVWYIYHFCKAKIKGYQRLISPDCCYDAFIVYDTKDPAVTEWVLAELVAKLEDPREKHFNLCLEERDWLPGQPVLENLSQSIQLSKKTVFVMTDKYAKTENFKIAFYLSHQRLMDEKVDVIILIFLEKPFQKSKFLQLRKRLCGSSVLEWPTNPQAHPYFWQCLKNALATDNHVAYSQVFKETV
Method in brief: (§1)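 Agonists (final): TLR7 gardiquimod 7.5 μM; TLR8 R848 15.9 μM; TLR9 ODN2006 5 nM. HEK-Blue reporter cells, 30 min RT compound pre-incubation, 0.05 nM–50 μM dose range, 22 h at 37 °C, colorimetric SEAP detection medium. % inhibition relative to agonist+DMSO and known-inhibitor wells.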

human TLR9 = biological target: T2, human TLR9 (Homo sapiens, UniProt Q9NR96); assay: TLR9 inhibition reporter assay (HEK-Blue cells, SEAP reporter, ODN2006 stimulation); conditions: HEK-Blue cells overexpressing human TLR9, SEAP reporter, ODN2006 5 nM
T2 construct: host or cells: HEK-Blue cells (HEK293-derived reporter line)
T2 sequence (Q9NR96 26-1032): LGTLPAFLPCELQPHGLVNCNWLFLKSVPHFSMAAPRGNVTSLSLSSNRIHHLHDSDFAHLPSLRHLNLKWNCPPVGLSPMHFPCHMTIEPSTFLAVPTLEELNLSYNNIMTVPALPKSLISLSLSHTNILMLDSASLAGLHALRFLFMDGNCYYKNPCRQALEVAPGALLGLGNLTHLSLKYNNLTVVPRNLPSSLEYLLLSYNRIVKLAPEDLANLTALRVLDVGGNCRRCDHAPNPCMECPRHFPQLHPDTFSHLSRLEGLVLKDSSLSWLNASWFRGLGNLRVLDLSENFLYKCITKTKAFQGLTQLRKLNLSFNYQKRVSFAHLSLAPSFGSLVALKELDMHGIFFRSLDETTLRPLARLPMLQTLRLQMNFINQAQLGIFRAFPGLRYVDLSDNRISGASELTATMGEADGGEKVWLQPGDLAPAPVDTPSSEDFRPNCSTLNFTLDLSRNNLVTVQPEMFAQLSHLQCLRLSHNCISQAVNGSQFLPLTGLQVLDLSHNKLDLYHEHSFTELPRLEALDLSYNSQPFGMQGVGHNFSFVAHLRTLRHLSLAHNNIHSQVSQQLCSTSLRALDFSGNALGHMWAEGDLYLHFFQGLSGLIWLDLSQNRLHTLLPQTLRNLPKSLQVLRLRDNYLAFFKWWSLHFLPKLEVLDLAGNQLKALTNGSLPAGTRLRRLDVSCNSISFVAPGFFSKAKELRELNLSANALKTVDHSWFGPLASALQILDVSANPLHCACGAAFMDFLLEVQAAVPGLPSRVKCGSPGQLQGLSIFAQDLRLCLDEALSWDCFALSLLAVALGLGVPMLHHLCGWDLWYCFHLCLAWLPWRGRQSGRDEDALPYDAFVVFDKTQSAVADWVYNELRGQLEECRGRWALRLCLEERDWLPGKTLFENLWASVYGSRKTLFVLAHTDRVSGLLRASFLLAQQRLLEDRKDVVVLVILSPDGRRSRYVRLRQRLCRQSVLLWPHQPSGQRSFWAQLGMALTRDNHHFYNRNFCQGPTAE
Method in brief: as §1

human TLR8 = biological target: T3, human TLR8 (Homo sapiens, UniProt Q9NR97); assay: TLR8 inhibition reporter assay (HEK-Blue cells, SEAP reporter, R848 stimulation); conditions: HEK-Blue cells overexpressing human TLR8, SEAP reporter, R848 15.9 μM
T3 construct: host or cells: HEK-Blue cells (HEK293-derived reporter line)
T3 sequence (Q9NR97 27-1041): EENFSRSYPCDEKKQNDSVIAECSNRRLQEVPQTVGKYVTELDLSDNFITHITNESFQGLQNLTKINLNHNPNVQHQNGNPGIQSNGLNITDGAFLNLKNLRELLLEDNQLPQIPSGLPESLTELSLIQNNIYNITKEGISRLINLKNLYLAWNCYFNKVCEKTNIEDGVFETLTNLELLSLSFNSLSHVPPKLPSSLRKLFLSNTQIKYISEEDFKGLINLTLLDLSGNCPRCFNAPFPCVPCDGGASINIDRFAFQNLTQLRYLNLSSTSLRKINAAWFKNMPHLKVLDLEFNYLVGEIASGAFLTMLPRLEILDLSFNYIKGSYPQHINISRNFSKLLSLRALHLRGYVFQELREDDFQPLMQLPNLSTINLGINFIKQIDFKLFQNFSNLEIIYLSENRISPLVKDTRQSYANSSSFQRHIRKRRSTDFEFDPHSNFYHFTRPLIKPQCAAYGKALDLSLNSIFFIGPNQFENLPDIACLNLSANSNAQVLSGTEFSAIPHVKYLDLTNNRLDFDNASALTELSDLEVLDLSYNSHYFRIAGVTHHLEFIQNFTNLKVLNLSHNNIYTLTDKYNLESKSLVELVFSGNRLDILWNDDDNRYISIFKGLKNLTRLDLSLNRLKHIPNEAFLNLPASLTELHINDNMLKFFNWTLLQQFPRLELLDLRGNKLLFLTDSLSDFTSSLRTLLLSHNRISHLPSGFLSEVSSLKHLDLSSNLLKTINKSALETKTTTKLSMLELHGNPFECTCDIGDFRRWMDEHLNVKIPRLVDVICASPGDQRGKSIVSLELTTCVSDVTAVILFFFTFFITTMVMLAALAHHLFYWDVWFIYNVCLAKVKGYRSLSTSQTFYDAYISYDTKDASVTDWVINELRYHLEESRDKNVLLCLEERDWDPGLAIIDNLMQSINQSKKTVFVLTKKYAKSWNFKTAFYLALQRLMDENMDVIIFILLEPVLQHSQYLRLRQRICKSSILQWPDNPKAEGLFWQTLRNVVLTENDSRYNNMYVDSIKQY
Method in brief: as §1

| Structure (SMILES) | IC50 (human TLR7) [nM] | IC50 (human TLR9) [nM] | IC50 (human TLR8) [nM] |
| --- | --- | --- | --- |
| Cc1cc(-c2[nH]c3ccc(C4CCNCC4)cc3c2C(C)C)cn2cc(C(=O)NC3CC3)nc12 [Example 262, N-cyclopropyl-6-(3-isopropyl-5-(piperidin-4-yl)-1H-indol-2-yl)-8-methylimidazo[1,2-a]pyridine-2-carboxamide] | < 100 | 100 to 1000 | < 100 |
| CCc1c(-c2ccnc3[nH]cc(Cl)c23)[nH]c2ccc(C3CCNCC3)cc12 [Example 39, 3-chloro-4-(3-ethyl-5-(piperidin-4-yl)-1H-indol-2-yl)-1H-pyrrolo[2,3-b]pyridine] | 100 to 1000 | 1000 to 50000 | 100 to 1000 |
| FC(F)Cc1c(-c2ccc3nccn3c2)[nH]c2ccc(C3CCN(Cc4c[nH]cn4)CC3)cc12 [Example 941, 6-(5-(1-((1H-imidazol-4-yl)methyl)piperidin-4-yl)-3-(2,2-difluoroethyl)-1H-indol-2-yl)imidazo[1,2-a]pyridine] | 100 to 1000 | 100 to 1000 | 100 to 1000 |
| Cc1cc(-c2[nH]c3ccc(C4CCN(C(=O)CCN5CCCC5)CC4)cc3c2C(C)C)cn2nnnc12 [Example 618, 1-(4-(3-isopropyl-2-(8-methyltetrazolo[1,5-a]pyridin-6-yl)-1H-indol-5-yl)piperidin-1-yl)-3-(pyrrolidin-1-yl)propan-1-one] | < 100 | 100 to 1000 | < 100 |
| COc1c[nH]c2nccc(-c3[nH]c4ccc(C5CCNCC5)cc4c3C)c12 [Example 213, 3-methoxy-4-(3-methyl-5-(piperidin-4-yl)-1H-indol-2-yl)-1H-pyrrolo[2,3-b]pyridine] | 1000 to 50000 | 1000 to 50000 | 100 to 1000 |
| Cc1cc(-c2[nH]c3ccc(C4CCNCC4)cc3c2C(C)C)cn2nnnc12 [Example 75, 6-(3-isopropyl-5-(piperidin-4-yl)-1H-indol-2-yl)-8-methyltetrazolo[1,5-a]pyridine] | < 100 | 100 to 1000 | < 100 |
| Cc1nc2c(C)cc(-c3[nH]c4ccc(C5CCN(C(=O)CN(C)C)CC5)cc4c3C(C)C)cn2c1C [Example 527, 2-(dimethylamino)-1-(4-(3-isopropyl-2-(2,3,8-trimethylimidazo[1,2-a]pyridin-6-yl)-1H-indol-5-yl)piperidin-1-yl)ethan-1-one] | < 100 | 100 to 1000 | 100 to 1000 |
| Cc1nc2cc(-c3[nH]c4ccc(C5CCNCC5)cc4c3C(C)C)cc(C)c2o1 [Example 92, 5-(3-isopropyl-5-(piperidin-4-yl)-1H-indol-2-yl)-2,7-dimethylbenzo[d]oxazole] | < 100 | 1000 to 50000 | 100 to 1000 |

Results, then the molecule that gave them:

| IC50 (human TLR7) [nM] | IC50 (human TLR9) [nM] | IC50 (human TLR8) [nM] | Structure (SMILES) |
| --- | --- | --- | --- |
| < 100 | 100 to 1000 | < 100 | CC(C)c1c(-c2ccc3nccn3c2)[nH]c2ccc(C3CCN(C)CC3)cc12 [Example 947, 6-(3-isopropyl-5-(1-methylpiperidin-4-yl)-1H-indol-2-yl)imidazo[1,2-a]pyridine] |
| < 100 | 100 to 1000 | 100 to 1000 | Cc1cn2cc(-c3[nH]c4ccc(C5CCN(C(C)C)CC5)cc4c3C(C)C)ccc2n1 [Example 945, 6-(3-isopropyl-5-(1-isopropylpiperidin-4-yl)-1H-indol-2-yl)-2-methylimidazo[1,2-a]pyridine] |
| < 100 | 1000 to 50000 | < 100 | Cc1cc2ncnn2nc1-c1[nH]c2ccc(C3CCN(C4CCOCC4)CC3)cc2c1C(C)C [Example 687, 6-(3-isopropyl-5-(1-(tetrahydro-2H-pyran-4-yl)piperidin-4-yl)-1H-indol-2-yl)-7-methyl-[1,2,4]triazolo[1,5-b]pyridazine] |
| 100 to 1000 | 100 to 1000 | 100 to 1000 | COc1cc(-c2[nH]c3ccc(C4CCN(C5COC5)CC4)cc3c2C(C)C)cc2nccn12 [Example 712, 7-(3-isopropyl-5-(1-(oxetan-3-yl)piperidin-4-yl)-1H-indol-2-yl)-5-methoxyimidazo[1,2-a]pyridine] |
| < 100 | 100 to 1000 | 100 to 1000 | CNCC(=O)N1CCC(c2ccc3[nH]c(-c4cn5ccnc5c(C)c4C)c(C(C)C)c3c2)CC1 [Example 548, 1-(4-(2-(7,8-dimethylimidazo[1,2-a]pyridin-6-yl)-3-isopropyl-1H-indol-5-yl)piperidin-1-yl)-2-(methylamino)ethan-1-one] |
| < 100 | 1000 to 50000 | < 100 | CC(C)c1c(-c2cn(C)c3ncccc23)[nH]c2ccc(C3CCN(C4COC4)CC3)cc12 [Example 733, 3-(3-isopropyl-5-(1-(oxetan-3-yl)piperidin-4-yl)-1H-indol-2-yl)-1-methyl-1H-pyrrolo[2,3-b]pyridine] |
| < 100 | 100 to 1000 | 100 to 1000 | CNC(=O)CN1CCC(c2ccc3[nH]c(-c4cc(C(C)(C)O)c5nccn5c4)c(C(C)C)c3c2)CC1 [Example 342, 2-(4-(2-(8-(2-hydroxypropan-2-yl)imidazo[1,2-a]pyridin-6-yl)-3-isopropyl-1H-indol-5-yl)piperidin-1-yl)-N-methylacetamide] |
